Paper PMC6946680, “Modulation of brain cation-Cl^− cotransport via the SPAK kinase inhibitor ZT-1a” (Nature Communications, 2020)
“And” between values parts separate entries of the source, which are not always exact repeats. Equal entries are not always repeated. “Also recorded” adds a separate entry of the source.

Key:
[1] = parameters: method as in Reviewer #3; settings: as stated by Reviewer #3 in the peer-review file; ref Reviewer #3; cited from earlier work
KCC3 [2] = assay: Immunoblot of total KCC3 / Actin in HEK-293 cells transfected with FLAG-KCC3; format: cell-based, human; settings: Fig S4b
SPAK–WNK1 interaction = test system: T1, SPAK–WNK1 interaction; assay: SPAK antibody pull-down / co-immunoprecipitation of WNK1 from HEK-293 cell lysates; format: binding, human; settings: for WNK1 co-immunoprecipitated with SPAK (band quantification): Fig S6
T1 construct: endogenous in cells; host or cells: HEK-293
Description: Supplemental Fig. 6 Evidence that SPAK associates with WNK1, and interaction is disrupted by ZT-1a and its analogs. Non-transfected HEK293 cell lysates were incubated with the RFQV peptide […]
ZT-1a for 30 min on ice and subjected to SPAK antibody immunoprecipitation. Immunoprecipitates were subjected to immunoblot probed with antibody to total WNK1 and antibody to total SPAK. Left panels: representative immunoblots. Right panels, summarized data quantitated by densitometry (n=3, means ± SEM; **,

SPAK pSer373 = assay: Choroid plexus SPAK/OSR1 immunoblot in rat post-hemorrhagic hydrocephalus (IVH) model; format: in vivo
KCC3 [3] = assay: 86Rb+ uptake assay for KCC3 activity in HEK-293 cells; format: cell-based, human; parameters: key to 86Rb+ uptake: 86Rb+ uptake CPM normalized per mg protein (10-min uptake); settings: for 86Rb+ uptake: replicates
Description: (§1) ^86Rb^+ flux assays have been utilized extensively as a reliable measurement of cation chloride cotransporter activity[51]–[54].
Thirty-six hours post transfection, cells were exposed for 30 min to either control isotonic conditions or hypotonic low [Cl^−] conditions (to activate the SPAK/OSR1 pathway), and then treated for an additional 30 min in the same conditions with the indicated ZT-1a concentrations in the presence of 1 mM ouabain and 0.1 mM bumetanide. Ten-minute ^86Rb^+ uptake values were quantified by scintillation counting, normalized per mg protein for each condition, and plotted for both isotonic and hypotonic conditions. ***p < 0.001; **p < 0.01; *p < 0.05; ns—nonsignificant [by one-way ANOVA with post hoc testing (n = 6, error bars represent the mean ± SEM)]. b ^86Rb^+ uptake assays in the presence of ZT-1a measure transport activity of NKCC1. […] Thirty-six hours post transfection, cells were exposed for 30 min to either control isotonic conditions or hypotonic low [Cl^−] conditions (to activate the SPAK/OSR1 pathway), and then treated in the same conditions for an additional 30 min with 10 µM ZT-1a or 0.1 mM bumetanide (Bum) in the presence of 1 mM ouabain (Na^+/K^+-ATPase inhibitor). ^86Rb^+ uptake was allowed to proceed for 10 min and was then quantified by scintillation counting. ^86Rb^+ uptake CPMs were normalized per mg protein and plotted for both isotonic and hypotonic conditions. […] Thirty-six hours post transfection, cells were exposed for 30 min to either control isotonic conditions or hypotonic low [Cl^−] conditions (to activate the SPAK/OSR1 pathway), and then treated for an additional 30 min in the same conditions with the indicated ZT-1a concentrations in the presence of 1 mM ouabain. Ten-minute ^86Rb^+ uptake values were quantified by scintillation counting, normalized per mg protein for each condition, and plotted for both isotonic and hypotonic conditions. ***p < 0.001; **p < 0.01; *p < 0.05; ns—nonsignificant [by one-way ANOVA with post hoc testing (n = 6, error bars represent the mean ± SEM)].
This stimulating medium was then removed and replaced with isotonic medium containing inhibitors plus 2 µCi/ml ^86Rb^+. After incubation for 10 min at 37 °C, cells were rapidly washed three times with the respective ice-cold nonradioactive medium. Washed cells were lysed in 300 µl of ice-cold lysis buffer and ^86Rb^+ uptake was quantitated by liquid scintillation counting (PerkinElmer).

[4] = test system: mouse model of ischemic stroke (tMCAO); assay: Corner test after tMCAO; format: in vivo; settings: for Corner test (Unilateral turns): Fig 7c, individual mice #1-#7
[5] = test system: GSK-3β Ser9 phosphorylation; assay: Immunoblot of GSK-3β Ser9 phosphorylation in HEK-293 cells; settings: for GSK3b pSer9 / Actin: Fig S4b
KCC3 pThr991/pThr1048 = assay: Choroid plexus KCC3 phospho-IP/immunoblot in rat IVH model; format: in vivo
NKCC1 pThr203/207/212 = assay: Choroid plexus NKCC1 immunoblot in rat IVH model; format: in vivo
[6] = test system: CSF secretion by choroid plexus epithelium; assay: Rate of CSF production after IVH with intracerebroventricular drug; format: in vivo; settings: rat; ZT-1a treatment for 48 h at 10 µM
[7] = test system: KCC3 Thr991Ala/Thr1048Ala; assay: 86Rb+ uptake assay for KCC3 double mutant in HEK-293 cells; format: cell-based, human; settings: for 86Rb+ uptake: Fig 3a, T991A/T1048A + 1a (10 µM), replicates
Description: as §1
Thirty-six hours post transfection, cells were exposed for 30 min to either control isotonic conditions or hypotonic low [Cl^−] conditions (to activate the SPAK/OSR1 pathway), and then treated for an additional 30 min in the same conditions with the indicated ZT-1a concentrations in the presence of 1 mM ouabain and 0.1 mM bumetanide. Ten-minute ^86Rb^+ uptake values were quantified by scintillation counting, normalized per mg protein for each condition, and plotted for both isotonic and hypotonic conditions. ***p < 0.001; **p < 0.01; *p < 0.05; ns—nonsignificant [by one-way ANOVA with post hoc testing (n = 6, error bars represent the mean ± SEM)]. b ^86Rb^+ uptake assays in the presence of ZT-1a measure transport activity of NKCC1. […] Thirty-six hours post transfection, cells were exposed for 30 min to either control isotonic conditions or hypotonic low [Cl^−] conditions (to activate the SPAK/OSR1 pathway), and then treated in the same conditions for an additional 30 min with 10 µM ZT-1a or 0.1 mM bumetanide (Bum) in the presence of 1 mM ouabain (Na^+/K^+-ATPase inhibitor). ^86Rb^+ uptake was allowed to proceed for 10 min and was then quantified by scintillation counting. ^86Rb^+ uptake CPMs were normalized per mg protein and plotted for both isotonic and hypotonic conditions. […] Ten-minute ^86Rb^+ uptake values were quantified by scintillation counting, normalized per mg protein for each condition, and plotted for both isotonic and hypotonic conditions. ***p < 0.001; **p < 0.01; *p < 0.05; ns—nonsignificant [by one-way ANOVA with post hoc testing (n = 6, error bars represent the mean ± SEM)].
This stimulating medium was then removed and replaced with isotonic medium containing inhibitors plus 2 µCi/ml ^86Rb^+. […] Washed cells were lysed in 300 µl of ice-cold lysis buffer and ^86Rb^+ uptake was quantitated by liquid scintillation counting (PerkinElmer).

pGSK-3α/β = assay: Immunoblot of phospho-GSK-3α/β in ischemic mouse brain; format: in vivo; settings: for pGSK-3αβ/GAPDH (fold veh-CL): Cytosol; for pGSK-3αβ/GAPDH (fold veh-CL) / pGSK-3αβ/Na K pump (fold veh-CL): Fig S4d; for pGSK-3αβ/Na K pump (fold veh-CL): Membrane
From the text: Cytosol and crude membrane protein
Expressions of Na+-K+ ATPase
respectively. d Densitometric analyses of immunoblots.

[8] = rat CPe 48 h post IVH + 1a, replicates
[9] = rat, ICV ZT-1a, 48 h post IVH, n = 3

## Cc1cc(C(C#N)c2ccc(Cl)cc2)c(Cl)cc1NC(=O)c1cc(Cl)ccc1O (centres unmarked) [ZT-1a, 5-chloro-N-(5-chloro-4-((4-chlorophenyl)(cyano)methyl)-2-methylphenyl)-2-hydroxybenzamide]
[1]
  logP: > 6
KCC3 [2]; ZT-1a 0.3 uM
  KCC3 / Actin: 2.04 and 1.923 and 2.091 and 1.84
KCC3 [2]; ZT-1a 1 uM
  KCC3 / Actin: 1.85 and 1.949 and 1.921 and 1.782
KCC3 [2]; ZT-1a 3 uM
  KCC3 / Actin: 1.87 and 1.905 and 1.972 and 1.73
SPAK–WNK1 interaction; 10 uM
  WNK1 co-immunoprecipitated with SPAK (band quantification): 0.445 and 0.402 and 0.4282 and 0.39
SPAK–WNK1 interaction; 30 uM
  WNK1 co-immunoprecipitated with SPAK (band quantification): 0.176 and 0.186 and 0.196
SPAK–WNK1 interaction; 100 uM
  WNK1 co-immunoprecipitated with SPAK (band quantification): 0.121 and 0.086 and 0.0911 and 0.105
SPAK–WNK1 interaction; 300 uM
  WNK1 co-immunoprecipitated with SPAK (band quantification): 0.066 and 0.072 and 0.068 and 0.058
SPAK–WNK1 interaction; 1000 uM
  WNK1 co-immunoprecipitated with SPAK (band quantification): 0.048 and 0.027 and 0.0332 and 0.031
SPAK–WNK1 interaction; HEK-293 cell lysates, absence or presence of competitor peptide
  co-immunoprecipitation of WNK1 with SPAK: abolished by ZT-1a more potently than by STOCK1S-50699 or by Closantel
SPAK pSer373; [8]
  SPAK / Actin: 2.39 and 2.21 and 2.2 and 2.51 and 2.16 and 2.37
  SPAK pSer373 / Actin: 0.69 and 0.85 and 1.13 and 0.73 and 0.89 and 1.07
SPAK pSer373; [9]
  reduction of IVH-induced expression of pSPAK in CPe: 55 ± 3.6%
KCC3 [3]; 86Rb+ flux, 10 µM ZT-1a, HEK-293
  activation of WT KCC3 (KCC) activity: > 10.6 fold and > 10 fold
KCC3 [3]; Fig 3a right, KCC3 wt, ZT-1a 1 uM, Hypotonic low Cl-
  86Rb+ uptake: 1990.9 and 1707.8 and 2071.9 and 2501.3 and 2188.7 and 2073.1
KCC3 [3]; Fig 3a right, KCC3 wt, ZT-1a 1 uM, Isotonic control
  86Rb+ uptake: 3241.3 and 3419.1 and 2873.4 and 3612.8 and 2913.5 and 2519.3
KCC3 [3]; Fig 3a right, KCC3 wt, ZT-1a 3 uM, Hypotonic low Cl-
  86Rb+ uptake: 4012.2 and 3271.9 and 4514.8 and 3888.6 and 3729.3 and 3910.5
KCC3 [3]; Fig 3a right, KCC3 wt, ZT-1a 3 uM, Isotonic control
  86Rb+ uptake: 6755.1 and 6519.9 and 7018.4 and 6691.3 and 7512.7 and 6011.7
KCC3 [3]; Fig 3a right, KCC3 wt, ZT-1a 10 uM, Hypotonic low Cl-
  86Rb+ uptake: 11981.4 and 10921.3 and 12650.2 and 11037.8 and 12144.8 and 9615.1
KCC3 [3]; Fig 3a right, KCC3 wt, ZT-1a 10 uM, Isotonic control
  86Rb+ uptake: 17537.1 and 16129.4 and 18002.7 and 19588.5 and 17991.3 and 15002.2
KCC3 [3]; Fig 3a, KCC3 wt + 1a (10 µM), Hypotonic low Cl-
  86Rb+ uptake: 12251.1 and 13980.5 and 10874.7 and 11830.4 and 14081.1 and 11229.7
KCC3 [3]; Fig 3a, KCC3 wt + 1a (10 µM), Isotonic control
  86Rb+ uptake: 17623.6 and 19014.4 and 18719.8 and 19961.7 and 18001.8 and 17951.6
[4]; Day 1
  Corner test (Unilateral turns): 9 Unilateral turns (2×) and 10 Unilateral turns and 6 Unilateral turns (4×)
[4]; Day 3
  Corner test (Unilateral turns): 6 Unilateral turns (2×) and 10 Unilateral turns and 7 Unilateral turns (3×) and 5 Unilateral turns
[4]; Day 5
  Corner test (Unilateral turns): 6 Unilateral turns (5×) and 5 Unilateral turns (2×)
[4]; Day 7
  Corner test (Unilateral turns): 6 Unilateral turns (4×) and 5 Unilateral turns (3×)
[4]; Day -1 (baseline)
  Corner test (Unilateral turns): 5 Unilateral turns (5×) and 6 Unilateral turns (2×)
[4]; ZT-1a 5.0 mg/kg, days 1–7 post stroke
  corner test, turn preference/asymmetries: absence of asymmetries by day 7 post stroke
[5]; 3 µM ZT-1a, HEK-293 cells
  GSK-3β Ser9 phosphorylation: not inhibited
[5]; ZT-1a 0.3 uM
  GSK3b pSer9 / Actin: 0.56 and 0.601 and 0.586 and 0.538
[5]; ZT-1a 1 uM
  GSK3b pSer9 / Actin: 0.58 and 0.576 and 0.603 and 0.529
[5]; ZT-1a 3 uM
  GSK3b pSer9 / Actin: 0.53 and 0.5901 and 0.613 and 0.56
KCC3 pThr991/pThr1048; [8]
  KCC3 pThr991 / Actin: 0.089 and 0.127 and 0.217 and 0.096 and 0.114 and 0.223
  KCC3 pThr1048 / Actin: 0.504 and 0.573 and 0.821 and 0.586 and 0.633 and 0.872
KCC3 pThr991/pThr1048; rat CPe, ICV ZT-1a
  reduction of post-IVH KCC3 phosphorylation at Thr991: 6 fold
  reduction of post-IVH KCC3 phosphorylation at Thr1048: 2.1 fold
NKCC1 pThr203/207/212; [8]
  NKCC1 pThr203/207/212 / Actin: 1.03 and 0.7 and 0.5 and 0.9 and 0.81 and 0.55
NKCC1 pThr203/207/212; [9]
  reduction of IVH-induced expression of pNKCC1 in CPe: 69 ± 4.3%
[6]
  decrease of post-IVH CSF hypersecretion: ~ 2.3 fold
[7]; 86Rb+ flux, 10 µM ZT-1a
  activity of KCC3 double mutant Thr991Ala/Thr1048Ala: failed to increase activity
[7]; Hypotonic low Cl-
  86Rb+ uptake: 20886.3 and 22005.7 and 21031.7 and 19121.7 and 18316.2 and 19001.7
[7]; Isotonic control
  86Rb+ uptake: 27112.3 and 26091.1 and 31837.7 and 30881.4 and 28673.6 and 29768.2
pGSK-3α/β; CL
  pGSK-3αβ/GAPDH (fold veh-CL): 1.03 fold veh-CL and 0.85 fold veh-CL and 1.10 fold veh-CL
  pGSK-3αβ/Na K pump (fold veh-CL): 1.04 fold veh-CL and 0.96 fold veh-CL and 1.12 fold veh-CL
pGSK-3α/β; IL
  pGSK-3αβ/GAPDH (fold veh-CL): 1.40 fold veh-CL and 1.29 fold veh-CL and 1.07 fold veh-CL
  pGSK-3αβ/Na K pump (fold veh-CL): 0.94 fold veh-CL and 0.88 fold veh-CL and 0.90 fold veh-CL
pGSK-3α/β; ZT-1a-treated ischemic mouse brain, 5.0 mg/kg i.p., 24 h post reperfusion, 5 mg/kg
  GSK-3β (p-GSK-3alpha/beta) phosphorylation in ischemic brain: not inhibited; also recorded: no marked inhibition
